# Key:
# rat OPCs = assay: Sterol metabolite levels in rat OPC cultures (Metabolon HD4); type: cell-based; conditions: rat OPC culture
# Description: Enriched populations of oligodendrocytes from female Sprague Dawley postnatal day 2 (P2) rats were grown in culture. Briefly, the forebrain was dissected and placed in Hank's buffered salt solution (HBSS) (Life technologies). The tissue was cut into 1 mm fragments and incubated at 37° C. for 15 min in 0.01% trypsin and 10 μg/ml DNase. Dissociated cells were plated on poly-D-lysine (PDL)-coated T75 tissue culture flasks and grown at 37° C. for 10 days in Dulbecco's Modified Eagle Medium (DMEM) with 20% fetal calf serum (Life technologies). Oligodendrocyte precursors (A2B5+) were collected by shaking the flask overnight at 200 rpm at 37° C., resulting in a 95% pure population. Cultures were maintained in a defined growth medium (high glucose DMEM, 0.1% BSA, 50 ug/ml Apo-transferrin, 5 ug/ml insulin, 30 nM sodium selenite, 10 nM biotin and hydrocortisone) with 10 ng/ml fibroblast growth factor/platelet-derived growth factor (FGF/PDGF) (Peprotech) for 2-3 days. For assessing the ability of Compound 1 to promote the differentiation of rat A2B5+ progenitor cells into mature myelin basic protein positive (MBP+) myelinating oligodendrocytes, A2B5+ cells were plated into 10-cm PDL coated culture plates in FGF/PDGF free growth medium supplemented with 10 ng/ml CNTF and 15 nM T3 and were immediately treated for with Compound 1. The cell pellets were collected at 24 hours and 72 hours in culture and stored at −80° C. The cell pellets were subsequently shipped to Metabolon (Morrisville, NC, USA) and maintained at −80° C. during shipping and storage until processed. The cell pellet samples were extracted with methanol under vigorous shaking for 2 min (Glen Mills GenoGrinder 2000) to precipitate protein and dissociate small molecules bound to protein or trapped in the precipitated protein matrix, followed by centrifugation to recover chemically diverse metabolites. The resulting extract were next aliquot and analyzed on Metabolon's HD4 platform. Several types of quality control samples, including recovery standards added prior to extraction, technical replicates from a pool combined from each experimental sample, process and solvent blanks, and spiked a cocktail of QC standards, were applied during sample preparation and analysis for quality assessment and filtering failed samples.
# circulating cholesterol [1] = assay: Population PK/PD model (Monolix) of circulating cholesterol vs Compound 1 plasma concentration; design: species or system human
# From the text: Based on these observations, a population PK/PD model was developed using Monolix to describe circulating cholesterol concentration as a function of plasma concentration of Compound 1 and exposure. The model was developed from cholesterol data from the study described above (Study 1) as well as two additional clinical studies (Study 2 and Study 3) in healthy volunteers. In Study 2, thirty healthy volunteers received a single oral dose of Compound 1 with 6 individual participants per cohort receiving 3 mg (Cohort 1), 10 mg (Cohort 2), 30 mg (Cohort 3), 60 mg (Cohort 4), 100 mg (Cohort 5). There were also 9 participants who received placebo in the study. In Study 3, 8 healthy adult volunteers received a single dose of 30 mg of Compound 1.
# [2] = system: rat A2B5+ oligodendrocytes / DRG neuron co-culture; assay: OPC/DRG co-culture myelination assay (MBP Western blot); type: cell-based; conditions: 13 days co-culture
# Description: Embryonic dorsal root ganglia (DRG) dissected from embryonic day 14 (E14) to day 17 (E17) Sprague Dawley rats, were plated on poly-L-lysine (100 μg/ml)-coated cover slips for 2 weeks and grown in Neurobasal medium supplemented with B27 (Life technologies). To remove proliferating glial cells, cultures were pulsed twice with fluorodeoxyuridine (20 μM) from days 2-6 and from days 8-10. Then rat A2B5+ oligodendrocytes were added to DRG neuron drop cultures in the presence or absence of compounds at 37° C. with 5% CO2 for 13 days. The culture media (Neurobasal medium supplemented with B27 and 100 ng/ml nerve growth factor (NGF)) with fresh compounds were changed twice per week. Myelination is determined by Western blotting to quantify MBP level.
# human iPSC-derived OPCs = assay: Human iPSC-derived OPC differentiation (MBP+ cells); type: cell-based; conditions: 0.02 and 0.2 μM, 40 days
# Description: Human induced pluripotent stem cell (iPSC) derived OPCs were maintained in proliferation media, composed of advanced DMEM-F12 supplemented with N2, B27, Glutamax, […] heparin (Sigma), 1 μM purmorphamine (Merck), 20 ng/ml FGF/PDGFa (Peprotech), 10 ng/ml IGF (Peprotech), and 60 ng/ml T3 (Sigma). To allow OPC differentiation, purmorphamine and FGF/PDGF were removed from the culture media. Compound 1 (0.02 and 0.2 μM) was incubated with human iPSC-derived OPCs in the differentiation media for 40 days.
# [3] = biological target: T1, sphingosine-1-phosphate receptor 4 (S1P4) (Homo sapiens, UniProt O95977); conditions: cited from earlier work
# T1 sequence (O95977 1-384): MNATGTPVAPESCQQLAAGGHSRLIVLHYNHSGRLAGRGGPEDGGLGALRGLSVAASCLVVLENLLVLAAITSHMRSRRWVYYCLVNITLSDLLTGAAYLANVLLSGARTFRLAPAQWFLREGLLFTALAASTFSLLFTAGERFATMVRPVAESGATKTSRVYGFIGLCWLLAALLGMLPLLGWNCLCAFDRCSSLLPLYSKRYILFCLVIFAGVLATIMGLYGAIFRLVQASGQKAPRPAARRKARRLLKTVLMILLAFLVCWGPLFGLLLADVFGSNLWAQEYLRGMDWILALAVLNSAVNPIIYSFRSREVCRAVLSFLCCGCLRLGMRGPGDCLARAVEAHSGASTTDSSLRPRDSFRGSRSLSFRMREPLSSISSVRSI
# [4] = system: LPC induced spinal cord demyelination; assay: LPC induced spinal cord demyelination model; type: in vivo, rat; conditions: oral, daily from Day 3, sacrifice Day 9
# [5] = system: cuprizone demyelination in the corpus callosum; assay: Cuprizone/rapamycin demyelination model; type: in vivo, mouse; conditions: oral gavage daily in the last 2 weeks of cuprizone/rapamycin treatment
# Description: Nine week-old C57/BL6 mice were fed with chow pellets containing 0.3% cuprizone (Harlan) and injected with rapamycin intraperitoneally for 6 weeks (10 mg/kg, 5 days/week). Animals were treated with Compound 1 by oral gavage daily in the last 2 weeks of cuprizone/rapamycin treatment. Animals were sacrificed at the end of the last treatment and brains were dissected to determine the effect of Compound 1 on remyelination in the corpus callosum (white matter) and cerebral cortex regions. Coronal slices (septostriatal section, 1 mm thickness) through the corpus callosum were cut, then cut on the midsagittal plane and embedded in epon, oriented to visualize the entire cross-section of the midsagittal corpus callosum. Myelinated axons in the corpus callosum lesions were quantified by toluidine blue staining. ** p<0.01, *** p<0.001. […] Error bars denote the standard error of the mean. N=39 for the study.
# neutrophils = assay: Neutrophil and monocyte counts in the healthy volunteer study; type: in vivo, human
# Description: (§1) Forty-two healthy volunteers received Compound 1 QD for 28 days (or before early withdrawal), with 6 individual participants per cohort receiving 1 mg (Cohort 1), 3 mg (Cohort 2), 10 mg (Cohort 3), 30 mg (Cohort 4), 60 mg loading dose with 10 mg maintenance dosing (Cohort 5) Compound 1, 60 mg (Cohort 6), or 90 mg loading dose on Day 1 and Day 2 with 30 mg maintenance dosing (Cohort 7). There were also 14 participants who received placebo in the study; 1 participant in Cohort 4 was misdosed on Day 19 and appeared to have received at least one 30 mg dose of Compound 1. The following protocol deviations were reported for participants in Cohorts 1 through 5: they received predose water ad lib (not restricted for 1 hour before and 1 hour after dose) and a meal administered 30 minutes postdose (not 4 hours postdose). A total of 49 participants completed treatment, including 37 participants who received active treatment.
# (§2) Participants received the first dose of study treatment (Compound 1 or placebo) on Day 1 and continued to receive once-daily study treatment through Day 28. Participants remained in the clinic throughout the dosing period. Participants were discharged on Day 29 after completing all assessments.
# [6] = system: LPC induced corpus callosum demyelination; assay: LPC induced corpus callosum demyelination model; type: in vivo; conditions: rat LPC corpus callosum model
# [7] = Plasma concentration of Compound 1 in healthy volunteers; type: in vivo, human
# Description: as §1
# Based on these observations, a population PK/PD model was developed using Monolix to describe circulating cholesterol concentration as a function of plasma concentration of Compound 1 and exposure. The model was developed from cholesterol data from the study described above (Study 1) as well as two additional clinical studies (Study 2 and Study 3) in healthy volunteers. […]
# [8] = system: human OPC-rat DRG co-culture; assay: Human OPC-rat DRG co-culture myelination (MBP ICC); type: cell-based; conditions: 0.02, 0.2, or 2 μM vs DMSO control
# Description: Embryonic dorsal root ganglia (DRG), dissected from embryonic day 14 (E14) to day 17 (E17) Sprague Dawley rats, were plated on poly-L-lysine (100 μg/ml)-coated cover slips for 2 weeks and grown in Neurobasal medium supplemented with B27 (Life Technologies). To remove proliferating glial cells, cultures were pulsed twice with fluorodeoxyuridine (20 μM) from days 2-6 and from days 8 to 10. Then human OPCs, prepared as described above, were added to DRG neuron drop cultures. The culture media for rat OPC-DRG co-culture is Neurobasal medium supplemented with B27 and 100 ng/ml NGF with fresh compounds changed twice per week. The culture media for human OPC-rat DRG co-culture is the proliferation media for human OPCs without purmorphamine and FGF/PDGF. Compound 1 (0.02, 0.2, or 2 μM) or DMSO control treatment started 1 day after OPCs were added to DRG culture. To visualize myelination, cultures were fixed by 4% paraformaldehyde (PFA) and labeled with anti-myelin basic protein (MBP) antibodies to identify changes in myelination by ICC.
# circulating cholesterol [9] = assay: 28-day multiple-dose study in healthy volunteers: circulating cholesterol and serum sterols; type: in vivo, human
# Description: as §1, §2
# Blood was periodically withdrawn from each volunteer and immediately stored at −80° C. For measuring metabolite concentrations in human serum, the samples were centrifuged and the resulting supernatant was used for further analysis.
# Free oxysterols were extracted from the samples with methanol using the Biocrates Kit filter plate. The plate was loaded with an internal standard mixture beforehand. The metabolite concentrations were determined by UHPLC-MS/MS with multiple reaction monitoring (MRM) in a positive mode using a SCIEX API 5500 QTRAP® (AB SCIEX, Darmstadt, German) instrument with electrospray ionization (ESI). Data were quantitated using appropriate mass spectrometry software and imported in Biocrates Met/DQ™ software for further analysis.
compound,measurement,setting,value
"CC[C@H]1CC[C@@H](Oc2ccc3cc(CN4CCC(C(=O)O)CC4)ccc3c2)CC1 [Compound 1, 1-((6-(((1s,4s)-4-ethylcyclohexyl)oxy)naphthalen-2-yl)methyl)piperidine-4-carboxylic acid]",7-DHC vs vehicle control,rat OPCs; 24 hours,8.3 folds
same,cholesterol vs vehicle control,rat OPCs; 24 hours,0.64 folds
same,desmosterol vs vehicle control,rat OPCs; 24 hours,0.44 folds
same,7-DHC vs vehicle control,rat OPCs; 72 hours,12.86 folds
same,cholesterol vs vehicle control,rat OPCs; 72 hours,insignificant change
same,desmosterol vs vehicle control,rat OPCs; 72 hours,0.4 folds
same,concentration of circulating cholesterol in the model,circulating cholesterol [1]; by daily dose,reduced at all daily doses higher than 10 mg
same,predicted decrease in circulating cholesterol,"circulating cholesterol [1]; model prediction, 60 mg QD",approximately 35%
same,EC50 for reduction in circulating cholesterol concentration,"circulating cholesterol [1]; population PK/PD model, plasma concentration of Compound 1",about 3 μg/mL
same,myelination (MBP level by Western blotting),[2],promoted myelination in OPC/DRG co-culture assay in a dose-dependent manner
same,number of MBP+ cells relative to control,human iPSC-derived OPCs,increased
same,S1P4 activity,[3],known inhibitor
same,dose for 90% of maximum observed biologic effect (ED90),[4],3 mg/kg
same,minimal efficacious dose (remyelinated axon fibers in the lesions),[4],0.3 mg/kg
same,"remyelination (myelinated axons, toluidine blue)",[4],enhanced remyelination in a dose dependent manner
same,remyelination (myelinated axons in corpus callosum lesions),[5],dose dependent enhancement of remyelination
same,absolute monocyte counts,"neutrophils; 60 mg QD, except the patient who discontinued",remained throughout the study in the normal range
same,other participants with decline in absolute neutrophil count,"neutrophils; Cohort 4, 30 mg",6 participants
same,other participants with decline in absolute neutrophil count,"neutrophils; Cohort 5, 60 mg loading dose followed by 10 mg maintenance dose",6 participants
same,other participants with decline in absolute neutrophil count,neutrophils; Cohort 6,5 participants
same,participants with neutropenia AE leading to discontinuation,"neutrophils; Cohort 6, 60 mg",1 participant
same,other participants with decline in absolute neutrophil count,neutrophils; Cohort 7,5 participants
same,participants with neutropenia AE leading to discontinuation,"neutrophils; Cohort 7, 90 mg loading dose followed by 30 mg maintenance dose",1 participant
same,other participants with decline in absolute neutrophil count,neutrophils; all doses ≥30 mg,22 participants
same,absolute neutrophil count from baseline,neutrophils; doses ≥30 mg,dose-dependent decline
same,extent of neutrophil count decline,"neutrophils; low doses <30 mg, Cohorts 1, 2, and 3",indistinguishable from placebo control
same,participants who developed CTCAE grade 3 neutropenia,neutrophils; whole study of Example 1,Two of 56
same,remyelination,[6],enhanced remyelination
same,steady-state concentration of Compound 1,[7]; daily dose of 60 mg,about 3 μg/mL
same,time of increase to steady-state concentrations of Compound 1 in plasma,[7]; daily dosing,approximately 15 days
same,amount of MBP+ myelinated axon clusters relative to control,[8],increased
same,7-dehydrocholesterol (7-DHC) level,circulating cholesterol [9]; healthy human volunteers,causes accumulation of 7-dehydrocholesterol
same,average decrease in total cholesterol,"circulating cholesterol [9]; healthy volunteers, 60 mg dose, Study 1",approximately 20%
same,total circulating cholesterol,"circulating cholesterol [9]; healthy volunteers, QD over 28 days, FIG. 1 (10, 30, 60 mg per day vs placebo)","gradual, time- and dose-dependent reduction"

# Reference: patent publication US20230390270A1, “METHODS FOR TREATING REMITTING MULTIPLE SCLEROSIS” (BIOGEN MA INC., priority 2020, published 2023)
